Results published in patent publication US6359130B1, “Bridged indenopyrrolocarbazoles” (Cephalon, Inc., priority 1998, dated 2002).
pIC50: −log10 of the molar value.

Tests used:
[1] = molecular target: T1, VEGF receptor (human flk-1, KDR, VEGFR2) kinase domain (Homo sapiens, UniProt P35968); assay: Inhibition of VEGF receptor kinase activity (ELISA); assay type: biochemical; details: 40 μM ATP; read-out: VEGFR kinase IC50
T1 construct: VEGF receptor (human flk-1, KDR, VEGFR2) kinase domain; made in house; host or cells: baculovirus expression system
Method: Bridged indenopyrrolocarbazole compounds were examined for their inhibitory effects on the kinase activity of baculovirus-expressed VEGF receptor (human flk-1, KDR, VEGFR2) kinase domain using the procedure described for the trkA kinase ELISA assay described above. The kinase reaction mixture, consisting of 50 mM Hepes, pH 7.4, 40 μM ATP, 10 mM MnCl2, 0.1% BSA, 2% DMSO, and various concentrations of inhibitor, was transferred to PLC-γ/GST-coated plates. VEGFR kinase was added and the reaction was allowed to proceed for 15 min. at 37° C. Detection of phosphorylated product was accomplished by addition of anti-phosphotyrosine antibody (UBI). A secondary enzyme-conjugated antibody was delivered to capture the antibody-phosphorylated PLC-γ/GST complex. The activity of the bound enzyme was measured via an amplified detection system (Gibco-BRL). Inhibition data were analyzed using the sigmoidal dose-response (variable slope) equation in GraphPad Prism.

[2] = tested on: protein kinase C (mixed isozymes of a, b, g); assay: Inhibition of protein kinase C activity (Millipore Multiscreen TCA in-plate assay); assay type: biochemical; details: for PKC % Inh. @ 1 uM: values in parentheses; for pIC50: read-out: PKC IC50
Method: Protein kinase C activity was assessed using the Millipore Multiscreen TCA “in-plate” assay as described in Pitt, A. M. and Lee, C. (J. Biomol. Screening, 1: 47-51, 1996). Assays were performed in 96-well Multiscreen-DP plates (Millipore). Each […] assay mixture contained 20 mM Hepes, pH 7.4, 10 mM MgCl2, 2.5 mM EGTA, 2.5 mM CaCl2, 80 mg/ml phosphatidyl serine, 3.2 mg/ml diolein, 200 mg/ml histone H-1(Fluka), 5 mM [γ-^32P]ATP, 1.5 ng protein kinase C (UBI; mixed isozymes of a, b, g), 0.1% BSA, 2% DMSO, and test bridged fused pyrrolocarbazole compound. The reaction was allowed to proceed for 10 min at 37° C., then quenched by adding ice cold 50% trichloroacetic acid. The plates were allowed to equilibrate for 30 min at 4° C., then washed with ice cold 25% TCA. Scintillation cocktail was added to the plates, and the radioactivity was determined using Wallac MicroBeta 1450 PLUS scintillation counter. The IC50 values were calculated by fitting the data to the sigmoidal dose-response (variable slope) equation in GraphPad Prism.

[3] = molecular target: T2, PDGFβ receptor kinase domain (Homo sapiens, UniProt P09619); assay: Inhibition of PDGF receptor kinase activity (ELISA); assay type: biochemical; details: for PDGFR % Inh. @ 1 μM / inhibition at 1 µM: values in parentheses; for pIC50: 20 μM ATP, read-out: PDGFR IC50; for inhibition at 1 µM: read-out: PDGFR % Inh. @ 1 μM
T2 construct: baculovirus-expresses PDGFβ receptor kinase domain; made in house; host or cells: baculovirus expression system
Method: Bridged indenopyrrolocarbazole compounds were examined for their inhibitory effects on the kinase activity of baculovirus-expresses PDGFβ receptor kinase domain using the trkA kinase ELISA described above. Assays were performed in substrate (PLC-γ/GST)-coated 96-well microtiter plates. Each 100-μl reaction mixture contained 50 mM HEPES, pH 7.4, 20 μM ATP, 10 mM MnCl2, 0.1% BSA, 2% DMSO, and various concentrations of inhibitor. The reaction was initiated by addition of prephosphorylated recombinant human enzyme (10 ng/ml PDGFRβ) and allowed to proceed for 15 minutes at 37° C. The prephosphorylated enzyme was prepared prior to use by incubation of the kinase in buffer containing 20 μM ATP and 10 mM MnCl2 for 1 hour at 4° C. Detection of phosphorylated product was done by adding horseradish peroxidase (HRP)-conjugated anti-phosphotyrosine antibody (UBI). The HRP substrate solution containing 3, 3′-5, 5′-tetramethylbenzidine and hydrogen peroxide was later added and the plates were incubated for 10 minutes at room temperature. The reaction was quenched with acid and the resulting absorbance was read at 450 nm using a Microplate Bio-kinetics Reader (Bio-Tek Instrument EL 312e). Inhibition data were analyzed using the sigmoidal dose-response (variable slope) equation in GraphPad Prism.

[4] = molecular target: T3, baculovirus-expressed human trkA cytoplasmic domain (Homo sapiens, UniProt P04629); assay: Inhibition of trkA tyrosine kinase activity (ELISA-based assay); assay type: biochemical; details: for pIC50: 40 μM ATP; for inhibition at 0.3 µM: read-out: trkA % inh @ 300 nM
T3 construct: baculovirus-expressed human trka cytoplasmic domain; made in house; host or cells: baculovirus expression system
Method: Selected bridged indenopyrrolocarbazole compounds were tested for their ability to inhibit the kinase activity of baculovirus-expressed human trka cytoplasmic domain using an ELISA-based assay as previously described (Angeles et al., Anal. Biochem. 236: 49-55, 1996). Briefly, the 96-well microtiter plate was coated with substrate solution (recombinant human phospholipase C-γl/glutathione S-transferase fusion protein (Rotin et al., EMBO J., 11: 559-567, 1992). Inhibition studies were performed in 100 μl assay mixtures containing 50 mM Hepes, pH 7.4, 40 μM ATP, 10 mM MnCl2, 0.1% BSA, 2% DMSO, and various concentrations of inhibitor. The reaction was initiated by addition of trkA kinase and allowed to proceed for 15 minutes at 37° C. An antibody to phosphotyrosine (UBI) was then added, followed by a secondary enzyme-conjugated antibody, alkaline phosphatase-labelled goat anti-mouse IgG (Bio-Rad). The activity of the bound enzyme was measured via an amplified detection system (Gibco-BRL). Inhibition data were analyzed using the sigmoidal dose-response (variable slope) equation in GraphPad Prism.

[5] = molecular target: T4, trkA in NIH3T3 cells transfected with trkA (Homo sapiens, UniProt P04629); assay: Inhibition of NGF-stimulated trk phosphorylation in a whole cell preparation; assay type: cell-based; set-up: key to Inhibition Score at 100 nM: 0=no decrease; 1=1-25%; 2=26-49%; 3=50-75%; 4=76-100%; details: NGF 10 ng/ml, percent decrease in trk protein band; for Inhibition Score at 100 nM: 100 nM compound; for Inhibition Score at 1000 nM: 1000 nM compound
T4 construct: expressed in transfected cells; host or cells: NIH3T3 cells
Method: NIH3T3 cells transfected with trkA were grown in 100 mm dishes. Subconfluent cells were serum-starved by replacing media with serum-free 0.05% BSA-DMEM containing compound (100 nM and 1 μM) or DMSO (added to controls) for one hour at 37° C. NGF (Harlan/Bioproducts for Science) was then added to the cells at a concentration of 10 ng/ml for 5 minutes. Cells were lysed in buffer containing detergent and protease inhibitors. Clarified cell lysates were normalized to protein using BCA method and immunoprecipitated with anti-trk antibody. Polyclonal anti-trk antibody was prepared against a peptide corresponding to the 14 amino acids at the carboxy terminus of trk (Martin-Zanca et al., Mol. Cell. Biol. 9: 24-33, 1989). The immune complexes were collected on Protein A Sepharose beads (Sigma Chem. Co., St. Lois, Mo.), separated by SDS polyacrylamide gel electrophoresis (SDS-PAGE), and transferred to a polyvinylidene difluoride (PVDF) membrane. The membrane was immunoblotted with anti-phosphotyrosine antibody (UBI), followed by incubation with horseradish peroxidase coupled goat anti-mouse IgG (Bio-Rad Laboratories, Hercules, Calif.). Phosphorylated proteins were visualized using ECL (Amersham Lite Science, Inc., Arlington Heights, Ill.). The area of the trk protein band was measured and compared to NGF-stimulated control. The inhibition scoring system used, based on percent decrease in trk protein band, was as follows: 0=no decrease; 1=1-25%; 2=26-49%; 3=50-75%; 4=76-100% Results are shown below in Table 3.

Spinal Cord ChAT = assay: Enhancement of spinal cord ChAT activity in dissociated rat embryonic spinal cord culture; assay type: cell-based
Method: For example, In these assays, a compound was directly added to a dissociated spinal cord culture. Compounds which increased ChAT activity at least 120% of the control activity were considered active.
Methods: Fetal rat spinal cord cells were dissociated, and experiments were performed as described (Smith et al., J. Cell Biology 101:1608-1621(1985); Glicksman et al., J. Neurochem. 61:210-221(1993) ). Dissociated cells were prepared from spinal cords dissected from rats (embryonic day 14-15) by standard trypsin dissociation techniques (Smith et al., supra.). Cells were plated at 6×10^5 cells/cm^2 on poly-1-ornithine coated plastic tissue culture wells in serum-free N2 medium supplemented with 0.05% bovine serum albumin (BSA) (Bottenstein et al., PNAS USA 76:514-517 (1979) ). Cultures were incubated at 37° C. in a humidified atmosphere of 5% CO2/95% air for 48 hours. ChAT activity was measured after 2 days in vitro using a modification of the Fonnum procedure (Fonnum, J. Neurochem. 24:407-409 (1975) ) according to McManaman et al. and Glicksman et al. (McManaman et al., Developmental Biology 125:311-320(1988); Glicksman et al., J. Neurochem., supra.).

T4 sequence (P04629 33-796): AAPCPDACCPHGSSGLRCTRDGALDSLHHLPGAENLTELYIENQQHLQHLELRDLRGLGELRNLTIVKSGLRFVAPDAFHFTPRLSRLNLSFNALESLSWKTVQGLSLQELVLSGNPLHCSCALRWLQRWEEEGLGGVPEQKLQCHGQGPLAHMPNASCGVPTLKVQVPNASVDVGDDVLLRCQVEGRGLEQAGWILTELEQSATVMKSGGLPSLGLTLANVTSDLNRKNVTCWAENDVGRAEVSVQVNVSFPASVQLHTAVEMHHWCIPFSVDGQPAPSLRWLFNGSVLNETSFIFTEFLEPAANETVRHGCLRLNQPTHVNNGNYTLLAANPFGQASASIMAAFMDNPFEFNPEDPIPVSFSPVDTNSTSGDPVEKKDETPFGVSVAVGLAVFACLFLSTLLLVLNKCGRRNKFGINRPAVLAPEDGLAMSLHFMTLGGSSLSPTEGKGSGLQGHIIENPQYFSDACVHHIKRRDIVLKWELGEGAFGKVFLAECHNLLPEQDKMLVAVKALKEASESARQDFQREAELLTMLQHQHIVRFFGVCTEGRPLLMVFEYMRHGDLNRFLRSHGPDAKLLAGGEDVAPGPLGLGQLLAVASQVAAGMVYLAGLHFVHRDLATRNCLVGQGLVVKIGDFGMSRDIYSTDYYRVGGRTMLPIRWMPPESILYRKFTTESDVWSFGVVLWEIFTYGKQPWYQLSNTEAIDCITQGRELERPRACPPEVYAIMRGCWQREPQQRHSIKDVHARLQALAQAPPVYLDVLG
T1 sequence (P35968 834-1162 limits assumed): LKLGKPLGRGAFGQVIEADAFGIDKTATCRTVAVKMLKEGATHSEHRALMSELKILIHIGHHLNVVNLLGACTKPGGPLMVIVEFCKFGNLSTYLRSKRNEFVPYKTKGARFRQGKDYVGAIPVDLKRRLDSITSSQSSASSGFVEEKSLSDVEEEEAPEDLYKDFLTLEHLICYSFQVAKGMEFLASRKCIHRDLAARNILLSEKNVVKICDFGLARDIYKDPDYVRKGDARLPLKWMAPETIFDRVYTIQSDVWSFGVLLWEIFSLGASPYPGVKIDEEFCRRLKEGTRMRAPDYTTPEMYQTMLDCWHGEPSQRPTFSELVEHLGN
T2 sequence (P09619 600-962 limits assumed): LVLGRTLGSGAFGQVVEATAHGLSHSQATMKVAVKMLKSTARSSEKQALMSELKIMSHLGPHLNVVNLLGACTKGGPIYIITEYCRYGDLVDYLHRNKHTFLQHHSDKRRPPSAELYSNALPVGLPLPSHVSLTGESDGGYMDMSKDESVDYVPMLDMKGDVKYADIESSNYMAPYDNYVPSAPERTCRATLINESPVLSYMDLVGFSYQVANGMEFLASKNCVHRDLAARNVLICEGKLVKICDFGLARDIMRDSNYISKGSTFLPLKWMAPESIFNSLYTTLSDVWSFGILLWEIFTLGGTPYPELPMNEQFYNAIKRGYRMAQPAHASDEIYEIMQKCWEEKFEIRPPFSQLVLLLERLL
T3 sequence (P04629 440-796 limits assumed): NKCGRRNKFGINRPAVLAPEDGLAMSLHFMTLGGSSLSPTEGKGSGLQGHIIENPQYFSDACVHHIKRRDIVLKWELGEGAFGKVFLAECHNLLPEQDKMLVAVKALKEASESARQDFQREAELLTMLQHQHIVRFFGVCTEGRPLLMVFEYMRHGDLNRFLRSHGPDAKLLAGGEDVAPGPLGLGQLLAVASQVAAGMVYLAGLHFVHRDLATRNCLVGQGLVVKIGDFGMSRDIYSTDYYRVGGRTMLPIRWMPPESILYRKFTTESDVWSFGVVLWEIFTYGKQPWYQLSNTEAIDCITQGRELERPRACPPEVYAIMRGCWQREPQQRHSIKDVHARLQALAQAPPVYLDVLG

SMILES	pIC50 [1]	PKC % Inh. @ 1 uM [2]	PDGFR % Inh. @ 1 μM [3]	pIC50 [4]	Inhibition Score at 100 nM [5]	Inhibition Score at 1000 nM [5]	pIC50 [2]	other results
O=C1NCc2c1c1c3c4c2c2ccccc2n4C2CCC(O2)C3c2ccccc2-1 (single isomer, unassigned) [II-1b]	7.17							
CC12CCCC(O1)n1c3ccccc3c3c4c(c5c(c31)C2c1ccccc1-5)C(=O)NC4 (single isomer, unassigned) [II-4a]	7.77	(18) %	(0) %	7.12				
CC12CCCC(O1)n1c3ccccc3c3c4c(c5c(c31)C2c1ccccc1-5)C(=O)NC4 (single isomer, unassigned) [II-4b]	6.74	(28) %	(17) %	7.80	0	2 (2=26-49%)		
CC12COCC(O1)n1c3ccccc3c3c4c(c5c(c31)C2c1ccccc1-5)C(=O)NC4 (single isomer, unassigned) [II-7a]	7.06		(36) %	7.96	3 (3=50-75%)	4 (4=76-100%)	6.16	
O=C1NCc2c1c1c3c4c2c2ccccc2n4C2CCC(O2)C3c2ccccc2-1 (centres unmarked) [II-1]	7.52			7.89	3 (3=50-75%)	4 (4=76-100%)	5.89	pIC50 [3]: 5.86; Spinal Cord ChAT Activity at 30 nM (Spinal Cord ChAT; 30 nM, active if at least 120% of control): 114 % control; Spinal Cord ChAT Maximal Activity (Spinal Cord ChAT; concentration of maximal activity printed in cell (300 nM)): 139 @ 300 nM % control
CCC12c3ccccc3-c3c4c(c5c6ccccc6n(c5c31)C1CCC2O1)CNC4=O (centres unmarked) [II-2]	< 5.00	(−9) %						inhibition at 1 µM [3]: 7%; inhibition at 0.3 µM ([4]; 300 nM, values in parentheses): 20%
CC12CCC(O1)n1c3ccccc3c3c4c(c5c(c31)C2c1ccccc1-5)C(=O)NC4 (centres unmarked) [II-3]	7.15	(23) %	(28) %	8.05	1 (1=1-25%)	4 (4=76-100%)		
CC12CCC(O1)n1c3ccc(Br)cc3c3c4c(c5c(c31)C2c1ccccc1-5)C(=O)NC4 (centres unmarked) [II-5]	6.40	(37) %		7.14				pIC50 [3]: 5.97
CC12COCC(O1)n1c3ccccc3c3c4c(c5c(c31)C2c1ccccc1-5)C(=O)NC4 (centres unmarked) [II-7b]	6.59			8.30	3 (3=50-75%)	4 (4=76-100%)	6.25	inhibition at 1 µM [3]: 34%
O=C1NCc2c3c4c5c(c21)c1ccccc1n5C1CCC(O1)C4c1ccccc1-3 (centres unmarked) [II-8]	7.59			6.60			5.97	inhibition at 1 µM [3]: 15%
Nc1cccc(-c2ccc3c(c2)c2c4c(c5c6c2n3C2CCC(O2)C6c2ccccc2-5)C(=O)NC4)c1 (centres unmarked) [II-9]	6.50	(5) %						inhibition at 1 µM [3]: 24%; inhibition at 0.3 µM ([4]; 300 nM, values in parentheses): 34%
O=C1NC(=O)c2c1c1c3c4c2c2ccccc2n4C2CCC(O2)C3(O)c2ccccc2-1 (centres unmarked) [II-10]	6.22	(5) %	(23) %					trkA % inh @ 300 nM ([4]; 300 nM, values in parentheses): (17) %
CCOC(=O)C12CCC(O1)n1c3ccccc3c3c4c(c5c(c31)C2c1ccccc1-5)C(=O)NC4 (centres unmarked) [II-11]	6.69	(19) %	(15) %	6.92				
O=C1NCc2c1c1c3c4c2c2ccccc2n4C2CCC(CO)(O2)C3c2ccccc2-1 (centres unmarked) [II-12]	7.70			7.77			6.29	pIC50 [3]: 6.90
COc1ccc2c(c1)-c1c3c(c4c5ccccc5n5c4c1C2C1CCC5O1)CNC3=O (centres unmarked) [II-13]	8.10						6.24	pIC50 [3]: 5.91
